The values that follow come from US6348190B1, “Pharmaceutical compositions with antimicrobial activity” (Richter Gedeon Vegyeszeti Gyar Rt., priority 1996, dated 2002).

In one experiment the test system is the bacteria tested. The experiment in a line: Seventh series: sterility examination after termination of the 72 hours trial. In kind it is cell-based. To be noted: sterility examination after the 72 hours trial. An excerpt: It can be observed that a nearly immediate effect occurs after inoculation.
Another experiment deals with Staphylococcus aureus. The experiment in a line: Second series: number of germs against prolonged time in 0.1% solutions. Format: cell-based. The conditions noted are these: 0.1% solution; for number of test organisms: Staphylococcus aureus. As for the experimental part:
(§1) Zinc and sodium hyaluronate solutions of […] (obtained by diluting solutions of 0.5% prepared according to Examples 1 and 2) were artificially infected by the identical germ count of various test organisms and the changing of the number of germs was taken against time. The number of germs was determined in a point of time by plating method. The evaluation was visually carried out at moulds and by using an automated colony counter at bacteria and fungi.
(§2) The effects of 0.1% zinc hyaluronate and sodium hyaluronate solutions, respectively on three distinguished test organisms are illustrated in Table 3.

For a further experiment, the system named is Salmonella sp. Described as above. In kind it is cell-based. The conditions noted are these: 0.1% solution; for number of test organisms: Salmonella sp. As to the method: as §1, §2
The subject of experiment [1] is Pseudomonas aeruginosa. The experiment in a line: Third series: effect of solutions of various concentrations on Pseudomonas aeruginosa. Format: cell-based. As for the experimental part:
as §1
Due to the ophthalmological importance of Pseudomonas aeruginosa, the effects of zinc hyaluronate solutions of various concentrations on Pseudomonas aeruginosa were studied in comparison to sodium hyaluronate solutions of the same concentrations.

For experiment [2], the system named is Pseudomonas aeruginosa. Description: Second series: number of germs against prolonged time in 0.1% solutions. In kind it is cell-based. The conditions noted are these: 0.1% solution. As for the experimental part: as §1, §2
In a further experiment the test system is Staphylococcus areus. The experiment in a line: Fifth series: MIC and CID by serial dilution. In kind it is cell-based, Staphylococcus aureus. The conditions noted are these: serial dilution from 0.2% solution. As for the experimental part:
(§3) The antibacterial effect of zinc hyaluronate associate can be characterized by the following values of the minimum inhibitory concentration (MIC) and microbicidal concentration (CID) in comparison to the corresponding values of sodium hyaluronate.
(§4) MIC and CID values were determined by using solutions of 0.2% concentration. The determinations were conducted in a known way: a serial dilution was prepared from the substances to be tested and these solutions were artificially infected by the corresponding dilutions of the selected test organisms. After incubation at a suitable temperature for an appropriate time, the concentration series was visually evaluated and the minimum concentration was determined, which inhibited the growth of microorganisms (MIC value), or induced the death of the microorganisms (CID value).

The subject of another experiment is Streptococcus sp. The experiment in a line: Fifth series: MIC and CID by serial dilution. In kind it is cell-based. The conditions noted are these: serial dilution from 0.2% solution. As to the method:
as §3, §4

The next experiment relates to Escherichia coli. Description: Fifth series: MIC and CID by serial dilution. In kind it is cell-based. The conditions noted are these: serial dilution from 0.2% solution. As to the method:
as §3, §4

Another experiment has as its system Salmonella. Description: Fifth series: MIC and CID by serial dilution. In kind it is cell-based. The conditions noted are these: serial dilution from 0.2% solution. As to the method: as §3, §4
Experiment [3] relates to Helicobacter pylori strain 822/96. Description: Eighth series: MIC on Helicobacter pylori, agar with 10% bovine blood. In kind it is cell-based. As to the method:
These investigations were carried out by using 1.0 weight/vol. % zinc hyaluronate solution on Helicobacter pylori strains cultivated from the gastric is biopsy samples of patients suffering from various ulcers. An 1% solution of De-Nol (colloidal bismuth subcitrate) was used as reference substance. Agar culture medium (nutrient medium) supplemented with 10% of bovine blood was used for the investigations. Plates without compound to be tested were used as controls. The inoculated plates were incubated for 3 to 5 days at 37° C. in a gaseous environment containing 5% of oxygen and 7 to 8% of carbon dioxide. The value of minimum inhibitory concentration (MIC) was considered to be the minimum concentration of substances totally inhibiting the propagation of bacteria well-growing on the control plates.

Bounds are passed on as bounds.

For “cobalt(II) hyaluronate [cobalt hyaluronate]”, the “character of the effect (static or bactericidal)” value in the experiment with the bacteria tested is recorded as “bactericidal effect”.

Turning to sodium hyaluronate [reference compound], the “number of test organisms” value in the experiment on Staphylococcus aureus (0 hr) is 1.3 × 10^6 Test-organism/ml; with Staphylococcus aureus (24 hrs) it was 4.1 × 10^6 Test-organism/ml; in the experiment on Staphylococcus aureus (48 hrs) it was 6.2 × 10^6 Test-organism/ml; in the experiment on Staphylococcus aureus (72 hrs), 8.4 × 10^6 Test-organism/ml; in the experiment with Salmonella sp (0 hr), 8.0 × 10^6 Test-organism/ml; in the experiment with Salmonella sp (24 hrs), 8.1 × 10^6 Test-organism/ml. The “number of test organisms” value in the experiment with Salmonella sp (48 hrs) was 1.2 × 10^6 Test-organism/ml; in the experiment on Salmonella sp (72 hrs) it was 1.8 × 10^6 Test-organism/ml. Moreover, the “course of the count over the test time (in words)” value in the experiment with Staphylococcus aureus (Staphylococcus) and in the experiment with Salmonella sp (Salmonella) was “remained practically within the same order” each time.

For zinc hyaluronate, the “number of test organisms” value in the experiment on Pseudomonas aeruginosa [1] (0.1% solution, 0 hr) is listed as 5.5 × 10^5 Test-organism /ml; in the experiment on Pseudomonas aeruginosa [1] (0.1% solution, 24 hrs) it was 5.0 × 10^5 Test-organism /ml; with Pseudomonas aeruginosa [1] (0.1% solution, 48 hrs) it was 2.0 × 10^3 Test-organism /ml; with Pseudomonas aeruginosa [1] (0.1% solution, 72 hrs), below 100 Test-organism /ml; in the experiment with Pseudomonas aeruginosa [1] (0.2% solution, 0 hr) it was 8.0 × 10^5 Test-organism /ml; with Pseudomonas aeruginosa [1] (0.2% solution, 24 hrs), 5.5 × 10^5 Test-organism /ml. For the same substance, the “number of test organisms” value in the experiment with Pseudomonas aeruginosa [1] (0.2% solution, 48 hrs) was 3.0 × 10^3 Test-organism /ml; in the experiment with Pseudomonas aeruginosa [1] (0.2% solution, 72 hrs), below 100 Test-organism /ml; in the experiment on Pseudomonas aeruginosa [1] (0.5% solution, 0 hr), 1.0 × 10^6 Test-organism /ml; with Pseudomonas aeruginosa [1] (0.5% solution, 24 hrs), 6.0 × 10^5 Test-organism /ml; in the experiment with Pseudomonas aeruginosa [1] (0.5% solution, 48 hrs) it was 3.0 × 10^3 Test-organism /ml; with Pseudomonas aeruginosa [1] (0.5% solution, 72 hrs), below 100 Test-organism /ml. Further, the “number of test organisms” value is 4.2 × 10^6 Test-organism/ml in the experiment with Staphylococcus aureus (0 hr); 4.6 × 10^6 Test-organism/ml in the experiment on Staphylococcus aureus (24 hrs); 0 Test-organism/ml in the experiment with Staphylococcus aureus (48 hrs); 0 Test-organism/ml with Staphylococcus aureus (72 hrs); 0 Test-organism/ml with Staphylococcus aureus (96 hrs); 0 Test-organism/ml in the experiment on Staphylococcus aureus (168 hrs). Besides, the “number of test organisms” value in the experiment on Salmonella sp (0 hr) is 2.0 × 10^6 Test-organism/ml; in the experiment with Salmonella sp (24 hrs) it was 1.1 × 10^6 Test-organism/ml; with Salmonella sp (48 hrs), 0 Test-organism/ml; in the experiment with Salmonella sp (72 hrs) it was 0 Test-organism/ml; in the experiment on Salmonella sp (96 hrs) it was 0 Test-organism/ml; in the experiment on Salmonella sp (168 hrs), 0 Test-organism/ml. Moreover, the “number of test organisms” value is 2.1 × 10^5 Test-organism/ml with Pseudomonas aeruginosa [2] (0 hr); 2.4 × 10^4 Test-organism/ml in the experiment with Pseudomonas aeruginosa [2] (24 hrs); 3.0 × 10^3 Test-organism/ml in the experiment with Pseudomonas aeruginosa [2] (48 hrs); below 100 Test-organism/ml in the experiment with Pseudomonas aeruginosa [2] (72 hrs); below 100 Test-organism/ml with Pseudomonas aeruginosa [2] (96 hrs); 0 Test-organism/ml in the experiment with Pseudomonas aeruginosa [2] (168 hrs). Also, the “activity compared (in words)” value with Pseudomonas aeruginosa [1] (Tables 4 and 5) is “obviously more effective than sodium hyaluronate solutions”. Also, the “time until count reduced to zero” value with Staphylococcus aureus (Staphylococcus) and in the experiment with Salmonella sp (Salmonella) was at most 48 h each time. Besides, the “onset of effect (in words)” value with Pseudomonas aeruginosa [2] is reported as “significant decrease appeared only from the second day”. For the same substance, the “CID (microbicidal concentration)” value was found to be 120 µg/mL with Staphylococcus areus, 400 µg/mL in the experiment on Streptococcus sp, 310 µg/mL in the experiment on Escherichia coli and 160 µg/mL with Salmonella. The “MIC (minimum inhibitory concentration)” value came out at 40 µg/mL against Staphylococcus areus, 96 µg/mL with Streptococcus sp, 26 µg/mL against Escherichia coli and 5.4 µg/mL in the experiment on Salmonella. Further, the “in vitro activity compared (in words)” value in [3] (Helicobacter pylori) was “comparable to the activity of De-Nol”. Besides, the MIC in experiment [3] (Helicobacter pylori strain 822/96, 3 to 5 days at 37° C., 5% oxygen, 7 to 8% carbon dioxide) worked out at 500 µg/mL.

The term MIC denotes the smallest concentration in the dilution series that meets the test's criterion for growth inhibition. Low values mean inhibition by little substance, high ones a need for much substance.
